The values below come from article PMC1241434 (Environmental Health Perspectives, 2003).

Each structure is given as a SMILES string.

Data set [1] concerns the target T1, human ER (Homo sapiens, UniProt P03372).
T1 sequence (P03372 1-595): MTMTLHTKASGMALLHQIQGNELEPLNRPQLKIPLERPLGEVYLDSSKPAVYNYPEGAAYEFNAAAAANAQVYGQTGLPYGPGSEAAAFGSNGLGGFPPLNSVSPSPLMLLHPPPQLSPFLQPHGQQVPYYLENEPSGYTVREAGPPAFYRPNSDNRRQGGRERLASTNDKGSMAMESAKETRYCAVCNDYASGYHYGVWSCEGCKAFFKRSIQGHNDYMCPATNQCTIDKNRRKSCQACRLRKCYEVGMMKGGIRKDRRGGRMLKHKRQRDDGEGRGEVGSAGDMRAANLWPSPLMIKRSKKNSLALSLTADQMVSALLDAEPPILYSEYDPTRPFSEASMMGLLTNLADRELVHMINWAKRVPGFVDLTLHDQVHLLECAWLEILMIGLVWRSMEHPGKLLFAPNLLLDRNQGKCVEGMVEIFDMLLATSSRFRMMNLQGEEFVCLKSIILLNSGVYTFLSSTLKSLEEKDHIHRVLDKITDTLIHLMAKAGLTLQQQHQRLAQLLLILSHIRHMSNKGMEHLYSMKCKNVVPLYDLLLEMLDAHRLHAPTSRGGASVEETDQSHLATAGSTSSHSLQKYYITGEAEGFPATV
The data set can be described thus: Competitive binding assay for ER. The settings on record: for RBA-E (relative binding affinity for hER): ratio of IC50 of DES to that of test compound, DES set at 100.

The target in data set [2] is T2, human AR (Homo sapiens, UniProt P10275).
T2 sequence (P10275 1-920): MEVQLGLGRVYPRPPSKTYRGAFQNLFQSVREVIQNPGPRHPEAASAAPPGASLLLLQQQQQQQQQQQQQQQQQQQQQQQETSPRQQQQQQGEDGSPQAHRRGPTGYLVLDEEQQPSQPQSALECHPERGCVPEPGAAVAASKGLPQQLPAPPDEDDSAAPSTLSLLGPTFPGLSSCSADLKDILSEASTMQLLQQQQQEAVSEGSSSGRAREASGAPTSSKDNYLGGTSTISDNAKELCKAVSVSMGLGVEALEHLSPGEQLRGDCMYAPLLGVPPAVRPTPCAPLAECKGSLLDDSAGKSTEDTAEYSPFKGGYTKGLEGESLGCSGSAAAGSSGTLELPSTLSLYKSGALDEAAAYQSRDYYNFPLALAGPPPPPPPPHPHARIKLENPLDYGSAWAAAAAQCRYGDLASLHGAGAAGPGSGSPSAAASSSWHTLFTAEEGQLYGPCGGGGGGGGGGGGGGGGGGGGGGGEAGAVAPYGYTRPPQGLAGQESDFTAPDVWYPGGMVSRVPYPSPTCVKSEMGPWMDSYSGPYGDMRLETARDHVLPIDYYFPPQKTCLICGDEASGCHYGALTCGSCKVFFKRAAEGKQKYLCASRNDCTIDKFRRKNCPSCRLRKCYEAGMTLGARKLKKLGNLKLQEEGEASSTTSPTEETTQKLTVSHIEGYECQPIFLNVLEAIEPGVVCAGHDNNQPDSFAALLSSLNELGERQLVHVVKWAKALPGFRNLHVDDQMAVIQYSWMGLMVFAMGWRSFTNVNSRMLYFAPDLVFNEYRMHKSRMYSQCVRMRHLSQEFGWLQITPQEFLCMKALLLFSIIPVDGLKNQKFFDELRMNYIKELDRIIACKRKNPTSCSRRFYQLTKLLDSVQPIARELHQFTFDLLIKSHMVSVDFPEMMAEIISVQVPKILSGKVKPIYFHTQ
The data set can be described thus: Competitive binding assay for AR. The settings on record: ratio of IC50 of mibolerone to that of test compound, mibolerone set at 100.

For data set [3], the target named is T3, human estrogen receptor-alpha (hER alpha) (Homo sapiens, UniProt P03372).
T3 sequence (P03372 1-595): T1 sequence (P03372 1-595)
The data set can be described thus: hER alpha reporter gene assay in CHO cells, agonist mode. Conditions: for hER-mediated transcriptional activity (estrogenic activity): 10^-5 M, absence of E2; for estrogenic activity of steroids: at the concentrations tested.

Data set [4] addresses T4, human androgen receptor (hAR) (Homo sapiens, UniProt P10275).
T4 sequence (P10275 1-920): T2 sequence (P10275 1-920)
The data set can be described thus: hAR reporter gene assay in CHO cells, antagonist mode. The settings on record: for inhibition of hAR-mediated transcriptional activity by DHT: 10^-5 M, presence of 10^-10 M DHT. A general note: Reporter assays use an easily measured gene product as a stand-in for the process of interest.

The target of data set [5] is T3, human estrogen receptor-alpha (hER alpha). The data set can be described thus: hER alpha reporter gene assay in CHO cells, antagonist mode. Conditions: 10^-5 M, presence of 10-11 M E2, versus vehicle.
Data set [6] deals with CHO-K1 cells. The data set can be described thus: Renilla luciferase activity as toxicity control in transfected CHO cells. The settings on record: conditions of the hAR antagonist assay, data not shown.
Data set [7] deals with T4, human androgen receptor (hAR). The data set is described as follows: hAR reporter gene assay in CHO cells, agonist mode. Conditions: for hAR-mediated transcriptional activity (androgenicity): 10^-5 M, absence of DHT.
The subject of data set [8] is estrogenic activity. The settings on record: 10^-5 M; ref Nishikawa et al. (2000); cited from earlier work.

As for `O=[N+]([O-])c1ccc(Oc2c(Cl)cc(Cl)cc2Cl)cc1` [CNP, 2,4,6-trichlorophenyl-4-nitrophenyl ether], in data set [1], the “effect on the binding of E2 to hER” value is “very low” and the “RBA-E (relative binding affinity for hER)” value is < 0.0009. Besides, in data set [2], the “RBA-A (relative binding affinity for hAR)” value is reported as 8.64. For the same compound, the “hER-mediated transcriptional activity (estrogenic activity)” value (shortened to “hER-mediated transcriptional activity”) in data set [3] is given as “potent estrogenic activity”. In data set [4], the “inhibition of hAR-mediated transcriptional activity by DHT” value is given as “inhibited”. Further, the “antiandrogenic potency, fold higher than o,p-DDT” value in data set [4] (IC50 ratio versus o,p-DDT) is ~10 fold. Besides, in data set [4] (IC50 ratio versus p,p-DDE), the “antiandrogenic potency, fold higher than p,p-DDE” value was ~14 fold. In addition, the “antiandrogenic potency, fold higher than vinclozolin” value in data set [4] (IC50 ratio versus vinclozolin) is reported as “approximately 3.5 fold”. Besides, the “effect on estrogenic activity of E2 (antiestrogenic activity)” value (shortened to “effect on estrogenic activity of E2”) in data set [5] is “did not show any significant differences”. Besides, in data set [6], the “effect on cellular viability (Renilla luciferase activity)” value is recorded as “did not affect the cellular viability”. Further, the “hAR-mediated transcriptional activity (androgenicity)” value in data set [7] is on record as “weakly androgenic”. Further, the “estrogenic activity in yeast two-hybrid assay” value in data set [8] is “negative”.

Regarding `Nc1ccc(Oc2c(Cl)cc(Cl)cc2Cl)cc1` [CNP-amino, 2,4,6-trichlorophenyl-4-aminophenyl ether], the “RBA-E (relative binding affinity for hER)” value in data set [1] came out at 0.036. Moreover, in data set [2], the “RBA-A (relative binding affinity for hAR)” value was determined as 0.33. Moreover, the “hER-mediated transcriptional activity” value in data set [3] is on record as “potent estrogenic activity”. In data set [3] (versus p,p-DDT), the “estrogenic activity, fold higher than p,p-DDT” value is reported as “about 4 fold”. In data set [4], the “inhibition of hAR-mediated transcriptional activity by DHT” value was “inhibited”. For the same compound, in data set [4] (ratio to CNP), the “antiandrogen intensity relative to CNP” value is given as “more than 1/10”. In data set [5], the “effect on estrogenic activity of E2” value is recorded as “did not show any significant differences”. The “effect on cellular viability (Renilla luciferase activity)” value in data set [6] is listed as “did not affect the cellular viability”. In addition, the “hAR-mediated transcriptional activity (androgenicity)” value in data set [7] was “no androgenicity”.

Turning to `C[C@]12CC[C@@H]3c4ccc(O)cc4CC[C@H]3[C@@H]1CCC2=O` [estrone, reference compound], in data set [7] (at the concentrations tested), the “androgenic activity of steroids” value is “only low activity”.

As to `Clc1ccc(C(c2ccccc2Cl)C(Cl)(Cl)Cl)cc1` (centres unmarked) [o,p-DDT, 1,1,1-trichloro-2-(p-chlorophenyl)-2-(o-chlorophenyl)ethane, reference compound], the “hER-mediated transcriptional activity” value in data set [3] was “potent estrogenic activity”. The “effect on estrogenic activity of E2” value in data set [5] is listed as “did not show any significant differences”.

Turning to `CC(=O)[C@H]1CC[C@H]2[C@@H]3CCC4=CC(=O)CC[C@]4(C)[C@H]3CC[C@]12C` [progesterone, reference compound], the “estrogenic activity of steroids” value in data set [3] was “inactive”.

Consider `C[C@]12CC[C@H]3[C@@H](CCC4=CC(=O)CC[C@@]43C)[C@@H]1CC[C@@H]2O` [testosterone, reference compound], for which the “estrogenic activity of steroids” value in data set [3] was “positive by this assay at high concentrations”.
